Experimental data reported in ChEMBL document CHEMBL1138245, “Discovery of N1-(6-chloroimidazo[2,1-b][1,3]thiazole-5-sulfonyl)tryptamine as a potent, selective, and orally active 5-HT(6) receptor agonist” (J Med Chem, 2007).

What was measured:
[1] = target: T1, 5-hydroxytryptamine receptor 6 (Homo sapiens, UniProt P50406); assay: Displacement of [3H]LSD from human 5HT6 receptor expressed in HeLa cells; format: cell-based
[2] = target: T1, 5-hydroxytryptamine receptor 6; assay: Agonist activity at human 5HT6 receptor expressed in HeLa cells assessed as cAMP production; format: functional, cell-based

T1 sequence (P50406 whole entry): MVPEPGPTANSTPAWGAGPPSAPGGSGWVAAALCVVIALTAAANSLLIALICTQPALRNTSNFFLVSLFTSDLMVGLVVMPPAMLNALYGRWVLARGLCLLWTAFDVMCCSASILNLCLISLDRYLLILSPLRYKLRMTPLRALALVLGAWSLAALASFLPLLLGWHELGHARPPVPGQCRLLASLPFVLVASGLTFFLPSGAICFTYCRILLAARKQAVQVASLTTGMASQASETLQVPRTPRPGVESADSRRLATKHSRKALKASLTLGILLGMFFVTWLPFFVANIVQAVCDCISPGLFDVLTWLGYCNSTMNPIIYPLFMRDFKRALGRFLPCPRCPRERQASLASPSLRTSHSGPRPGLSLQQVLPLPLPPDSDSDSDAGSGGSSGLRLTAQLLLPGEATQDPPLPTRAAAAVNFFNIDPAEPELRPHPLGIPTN

Question: Which results are given for NCCc1cn(S(=O)(=O)c2ccc(Cl)cc2)c2ccccc12?
Answer: Ki [1]: 10 nM; EC50 [2]: 174 nM; Emax [2]: 93.5%
